How the values were obtained:
[1] = system: isolated rabbit skeletal muscle myosin (skeletal); test: actomyosin steady state ATPase measurement, skeletal muscle myosin; format: biochemical; settings: for % inhibition at 5 μM (or 10 μM if racemate) Skeletal: 5 μM (10 μM if racemate); for % inhibition at 5 μM (or 10 μM if racemate) Skeletal / % inhibition at 50 μM (or 100 μM if racemate) Skeletal: ATPase activity; for % inhibition at 50 μM (or 100 μM if racemate) Skeletal: 50 μM (100 μM if racemate); for IC50: concentration required for semi-maximal inhibition of ATPase; for % inhibition. complete Skeletal: maximum value of inhibition of ATPase activity
Description: (§1) […]; (ii) the concentration required for semi-maximal inhibition.

[2] = target: isolated smooth muscle myosin (UniProt P10587); format: biochemical, chamois; settings: concentration required for semi-maximal inhibition of ATPase
Description: (ii) the concentration required for semi-maximal inhibition.

[3] = target: recombinant human non-muscle myosin 2 NM2C (Homo sapiens, UniProt Q7Z406); test: actomyosin steady state ATPase measurement, NM2C; format: biochemical; settings: for IC50: concentration required for semi-maximal inhibition of ATPase; for Inhibition (%) NM2C: maximum inhibition, compounds in IC50 range 1-5 μM; for % inhibition. complete NM2C: maximum value of inhibition of ATPase activity; for inhibition at 5 µM: read-out: % inhibition at 5 μM (or 10 μM if racemate) NM2C, 5 μM (10 μM if racemate); for inhibition at 5 µM / inhibition at 50 µM: ATPase activity; for inhibition at 50 µM: read-out: % inhibition at 50 μM (or 100 μM if racemate) NM2C, 50 μM (100 μM if racemate)
recombinant human non-muscle myosin 2 NM2C, sequence (Q7Z406 whole entry): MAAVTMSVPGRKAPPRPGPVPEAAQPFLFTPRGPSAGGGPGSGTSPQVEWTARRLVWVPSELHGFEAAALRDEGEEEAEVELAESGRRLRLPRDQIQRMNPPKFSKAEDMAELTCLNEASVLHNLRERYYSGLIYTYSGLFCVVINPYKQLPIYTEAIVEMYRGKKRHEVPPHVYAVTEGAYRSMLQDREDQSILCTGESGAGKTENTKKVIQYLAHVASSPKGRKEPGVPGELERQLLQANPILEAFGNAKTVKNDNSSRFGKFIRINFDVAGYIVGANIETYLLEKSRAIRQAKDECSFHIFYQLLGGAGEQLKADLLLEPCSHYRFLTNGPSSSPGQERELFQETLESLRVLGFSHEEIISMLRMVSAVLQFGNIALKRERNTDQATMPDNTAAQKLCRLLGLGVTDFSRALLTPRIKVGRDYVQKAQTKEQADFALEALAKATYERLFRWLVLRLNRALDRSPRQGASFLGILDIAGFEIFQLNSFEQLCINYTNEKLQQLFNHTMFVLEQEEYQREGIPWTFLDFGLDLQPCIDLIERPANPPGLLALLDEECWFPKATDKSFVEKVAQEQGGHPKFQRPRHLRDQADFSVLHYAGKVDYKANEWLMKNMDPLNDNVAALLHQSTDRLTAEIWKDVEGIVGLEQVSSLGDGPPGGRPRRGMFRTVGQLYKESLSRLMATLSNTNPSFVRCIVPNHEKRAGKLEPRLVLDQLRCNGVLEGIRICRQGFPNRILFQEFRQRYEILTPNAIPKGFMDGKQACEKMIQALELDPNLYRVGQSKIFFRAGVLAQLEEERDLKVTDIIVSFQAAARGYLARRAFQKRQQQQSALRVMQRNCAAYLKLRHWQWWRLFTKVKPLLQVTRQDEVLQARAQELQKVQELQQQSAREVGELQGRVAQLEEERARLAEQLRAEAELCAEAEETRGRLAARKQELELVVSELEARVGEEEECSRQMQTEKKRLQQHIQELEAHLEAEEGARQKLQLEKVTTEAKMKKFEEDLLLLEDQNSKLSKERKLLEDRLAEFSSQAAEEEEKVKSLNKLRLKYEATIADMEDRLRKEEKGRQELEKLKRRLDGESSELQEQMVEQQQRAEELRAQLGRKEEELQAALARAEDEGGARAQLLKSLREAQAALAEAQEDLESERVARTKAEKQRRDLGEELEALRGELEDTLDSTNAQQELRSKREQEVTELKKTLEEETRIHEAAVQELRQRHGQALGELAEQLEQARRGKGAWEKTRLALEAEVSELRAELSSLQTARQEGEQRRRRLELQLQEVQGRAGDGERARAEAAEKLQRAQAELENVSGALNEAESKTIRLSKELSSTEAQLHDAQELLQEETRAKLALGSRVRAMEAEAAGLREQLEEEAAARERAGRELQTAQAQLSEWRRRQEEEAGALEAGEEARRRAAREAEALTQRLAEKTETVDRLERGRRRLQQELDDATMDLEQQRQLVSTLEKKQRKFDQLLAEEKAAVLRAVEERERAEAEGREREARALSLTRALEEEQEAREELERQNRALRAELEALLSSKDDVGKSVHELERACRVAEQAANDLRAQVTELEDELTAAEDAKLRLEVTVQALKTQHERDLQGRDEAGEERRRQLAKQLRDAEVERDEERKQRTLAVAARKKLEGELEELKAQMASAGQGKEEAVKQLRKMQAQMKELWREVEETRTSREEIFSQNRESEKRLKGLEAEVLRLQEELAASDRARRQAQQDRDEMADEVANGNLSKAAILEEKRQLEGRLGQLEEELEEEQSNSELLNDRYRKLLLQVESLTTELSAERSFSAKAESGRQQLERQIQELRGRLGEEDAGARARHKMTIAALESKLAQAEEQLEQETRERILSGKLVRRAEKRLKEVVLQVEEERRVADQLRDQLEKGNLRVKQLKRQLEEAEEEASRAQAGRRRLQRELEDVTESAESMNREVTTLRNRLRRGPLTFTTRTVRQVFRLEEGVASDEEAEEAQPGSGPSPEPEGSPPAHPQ
Description: as §1

[4] = target: T1, isolated porcine cardiac ventricular myocardium (cardiac) (Sus scrofa, UniProt P79293); test: actomyosin steady state ATPase measurement, cardiac myosin; format: biochemical; settings: for IC50: concentration required for semi-maximal inhibition of ATPase; for % inhibition. complete cardiac: maximum value of inhibition of ATPase activity; for inhibition at 5 µM: read-out: % inhibition at 5 μM (or 10 μM if racemate) cardiac, 5 μM (10 μM if racemate); for inhibition at 5 µM / inhibition at 50 µM: ATPase activity; for inhibition at 50 µM: read-out: % inhibition at 50 μM (or 100 μM if racemate) cardiac, 50 μM (100 μM if racemate)
T1 construct: isolated porcine cardiac ventricular myocardium (cardiac); from tissue; host or cells: porcine cardiac ventricle
Description: as §1

[5] = target: recombinant Dictyostelium miozin (Dictyostelium) (Dictyostelium discoideum, UniProt P08799); test: actomyosin steady state ATPase measurement, Dictyostelium myosin; format: biochemical; settings: for IC50: concentration required for semi-maximal inhibition of ATPase, read-out: IC50 (μM) Dicty; for % inhibition. complete Dicty: maximum value of inhibition of ATPase activity; for inhibition at 5 µM: read-out: % inhibition at 5 μM (or 10 μM if racemate) Dicty; for inhibition at 50 µM: read-out: % inhibition at 50 μM (or 100 μM if racemate) Dicty; for Inhibition (%) Dicty: maximum inhibition, compounds in IC50 range 1-11 μM
recombinant Dictyostelium miozin (Dictyostelium), sequence (P08799 whole entry): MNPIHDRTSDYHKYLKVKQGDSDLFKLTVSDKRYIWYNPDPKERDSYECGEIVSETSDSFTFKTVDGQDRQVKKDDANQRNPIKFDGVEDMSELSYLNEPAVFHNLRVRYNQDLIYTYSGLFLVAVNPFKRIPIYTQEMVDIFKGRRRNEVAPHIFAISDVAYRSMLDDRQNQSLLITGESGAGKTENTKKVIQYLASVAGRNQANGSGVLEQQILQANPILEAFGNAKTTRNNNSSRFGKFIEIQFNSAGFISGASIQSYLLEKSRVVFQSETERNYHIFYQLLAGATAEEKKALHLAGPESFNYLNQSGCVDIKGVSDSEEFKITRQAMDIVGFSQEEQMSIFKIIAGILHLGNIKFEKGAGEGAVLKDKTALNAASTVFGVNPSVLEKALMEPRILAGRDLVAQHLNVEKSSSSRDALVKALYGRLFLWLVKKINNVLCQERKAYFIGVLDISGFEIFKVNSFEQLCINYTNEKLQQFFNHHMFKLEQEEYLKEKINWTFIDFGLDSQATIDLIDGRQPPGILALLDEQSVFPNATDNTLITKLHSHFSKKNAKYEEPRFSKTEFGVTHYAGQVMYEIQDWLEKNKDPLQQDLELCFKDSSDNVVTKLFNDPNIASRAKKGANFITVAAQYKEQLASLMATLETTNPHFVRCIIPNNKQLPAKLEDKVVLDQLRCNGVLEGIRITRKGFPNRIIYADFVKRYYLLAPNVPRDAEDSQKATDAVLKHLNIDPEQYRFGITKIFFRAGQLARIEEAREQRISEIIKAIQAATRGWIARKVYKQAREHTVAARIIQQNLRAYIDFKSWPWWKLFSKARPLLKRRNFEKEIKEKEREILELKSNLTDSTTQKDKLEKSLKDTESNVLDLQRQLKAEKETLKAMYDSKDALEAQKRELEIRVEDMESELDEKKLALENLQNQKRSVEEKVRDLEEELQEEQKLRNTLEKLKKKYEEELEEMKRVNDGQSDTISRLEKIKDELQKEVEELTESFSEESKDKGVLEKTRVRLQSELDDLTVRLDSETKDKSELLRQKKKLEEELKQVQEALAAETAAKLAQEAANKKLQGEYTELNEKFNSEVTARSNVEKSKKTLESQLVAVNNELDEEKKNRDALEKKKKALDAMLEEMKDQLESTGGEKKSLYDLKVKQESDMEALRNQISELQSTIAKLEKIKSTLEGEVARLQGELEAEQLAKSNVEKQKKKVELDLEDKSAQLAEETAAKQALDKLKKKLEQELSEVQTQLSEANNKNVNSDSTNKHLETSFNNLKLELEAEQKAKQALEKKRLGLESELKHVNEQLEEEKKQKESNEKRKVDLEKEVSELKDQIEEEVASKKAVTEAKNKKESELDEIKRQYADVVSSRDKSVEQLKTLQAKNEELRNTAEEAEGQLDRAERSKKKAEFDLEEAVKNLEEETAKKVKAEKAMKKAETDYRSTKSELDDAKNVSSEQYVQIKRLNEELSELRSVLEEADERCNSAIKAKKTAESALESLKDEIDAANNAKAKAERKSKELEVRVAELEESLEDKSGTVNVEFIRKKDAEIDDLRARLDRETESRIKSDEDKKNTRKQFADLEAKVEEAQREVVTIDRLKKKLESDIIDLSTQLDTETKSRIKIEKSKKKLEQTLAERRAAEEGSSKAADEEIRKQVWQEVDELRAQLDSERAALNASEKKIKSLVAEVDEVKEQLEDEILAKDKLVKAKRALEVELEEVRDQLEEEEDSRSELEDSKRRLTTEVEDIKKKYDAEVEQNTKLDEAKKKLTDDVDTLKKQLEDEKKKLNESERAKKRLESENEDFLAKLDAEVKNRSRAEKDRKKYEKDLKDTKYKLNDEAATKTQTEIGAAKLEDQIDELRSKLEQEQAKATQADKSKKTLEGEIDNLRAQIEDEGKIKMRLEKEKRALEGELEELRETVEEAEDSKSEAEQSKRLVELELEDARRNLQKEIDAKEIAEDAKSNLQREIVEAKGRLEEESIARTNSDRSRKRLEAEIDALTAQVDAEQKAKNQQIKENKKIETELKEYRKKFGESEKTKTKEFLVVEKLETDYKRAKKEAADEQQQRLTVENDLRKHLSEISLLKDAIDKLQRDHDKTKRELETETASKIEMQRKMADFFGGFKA
Description: as §1

[6] = target: isolated smooth muscle myosin (UniProt P10587); format: biochemical, chamois; settings: for % inhibition at 5 μM (or 10 μM if racemate) Smooth: 5 μM (10 μM if racemate); for % inhibition at 5 μM (or 10 μM if racemate) Smooth / % inhibition at 50 μM (or 100 μM if racemate) Smooth: ATPase activity; for % inhibition at 50 μM (or 100 μM if racemate) Smooth: 50 μM (100 μM if racemate); for % inhibition. complete Smooth: maximum value of inhibition of ATPase activity; for Inhibition (%) smooth: maximum inhibition, compounds in IC50 range 1-5 μM

SMILES	% inhibition at 5 μM (or 10 μM if racemate) Skeletal [1] [%]	% inhibition at 50 μM (or 100 μM if racemate) Skeletal [1] [%]	IC50 [1] [µM]	% inhibition. complete Skeletal [1] [%]	IC50 [2] [µM]	IC50 [3] [µM]	% inhibition. complete NM2C [3] [%]	inhibition at 5 µM [3] [%]	inhibition at 50 µM [3] [%]	IC50 [4] [µM]	% inhibition. complete cardiac [4] [%]	inhibition at 5 µM [4] [%]	inhibition at 50 µM [4] [%]	IC50 [5] [µM]	% inhibition. complete Dicty [5] [%]	inhibition at 5 µM [5] [%]	inhibition at 50 µM [5] [%]	% inhibition at 5 μM (or 10 μM if racemate) Smooth [6] [%]	% inhibition at 50 μM (or 100 μM if racemate) Smooth [6] [%]	% inhibition. complete Smooth [6] [%]	also measured
Cc1cc2c(s1)N=C1N(c3ccc(N)cc3)CCC1(O)C2=O (stereo not drawn) [Compound 221, 12-(4-Aminophenyl)-9-hydroxy-5-methyl-4-thia-2,12-diazatricyclo[7.3.0.0^3,7]dodeca-1,3(7),5-trien-8-one]	65	91	1.8	92	6	4.1	61	32	56	0.9	79	65	78	11.6	100	27	85	43	87	97	Inhibition (%) skeletal ([1]; maximum inhibition, compounds in IC50 range 1-2 μM): 92%; Inhibition (%) NM2C [3]: 61%
COc1ccc(N2CCC3(O)C(=O)c4cc(C)sc4N=C23)cc1 (stereo not drawn) [Compound 222, 9-Hydroxy-12-(4-methoxyphenyl)-5-methyl-4-thia-2,12-diazatricyclo[7.3.0.0^3,7]dodeca-1,3(7),5-trien-8-one]	92	95	0.11	95	0.86	0.76	91	77	89	0.52	93	82	92	4.7	100	49	99	83	97	98	
Cc1cc2c(s1)N=C1N(c3ccc(C#N)cc3)CCC1(O)C2=O (stereo not drawn) [Compound 224, 4-{9-Hydroxy-5-methyl-8-oxo-4-thia-2,12-diazatricyclo[7.3.0.0^3,7]dodeca-1,3(7),5-trien-12-yl}benzonitrile]	94	98	0.21	98	1.7	1.2	93	72	91	1.7	99	72	96	2.8	89	64	86	72	96	99	
CC(=O)c1ccc(N2CCC3(O)C(=O)c4cc(C)sc4N=C23)cc1 (stereo not drawn) [Compound 225, 12-(4-Acetylphenyl)-9-hydroxy-5-methyl-4-thia-2,12-diazatricyclo[7.3.0.0^3,7]dodeca-1,3(7),5-trien-8-one]	93	95	0.17	96	2.2	2.8	78	47	74	2.4	100	68	96	4.1	100	64	97	68	96	100	Inhibition (%) Dicty [5]: 100%
Cc1cc2c(s1)N=C1N(c3ccc(CC#N)cc3)CCC1(O)C2=O (stereo not drawn) [Compound 226, 2-(4-{9-Hydroxy-5-methyl-8-oxo-4-thia-2,12-diazatricyclo[7.3.0.0^3,7]dodeca-1,3(7),5-trien-12-yl}phenyl)acetonitrile]	91	92	0.17	93	0.5	1.5	92	69	90	0.73	85	72	83	5.5	92	43	83	72	79	80	Inhibition (%) Dicty [5]: 92%
Cc1cc2c(s1)N=C1N(c3ccc(CO)cc3)CCC1(O)C2=O (stereo not drawn) [Compound 227, 9-Hydroxy-12-[4-(hydroxymethyl)phenyl]-5-methyl-4-thia-2,12-diazatricyclo[7.3.0.0^3,7]dodeca-1,3(7),5-trien-8-one]	82	96	0.83	97	4	2.8	84	52	80	0.76	90	77	89	5.1	100	47	96	54	92	99	Inhibition (%) NM2C [3]: 84%
Cc1cc2c(s1)N=C1N(c3cccs3)CCC1(O)C2=O (stereo not drawn) [Compound 229, 9-Hydroxy-5-methyl-12-(thiophen-2-yl)-4-thia-2,12-diazatricyclo[7.3.0.0^3,7]dodeca-1,3(7),5-trien-8-one]	87	96	0.61	97	3.4	1.1	100	78	98	1.4	93	54	87	1.4	97	74	95	54	87	93	Inhibition (%) smooth [6]: 93%
COc1ccc(N2CCC3(O)C(=O)c4cc(C)sc4N=C23)cn1 (stereo not drawn) [Compound 230, 9-Hydroxy-12-(6-methoxypyridin-3-yl)-5-methyl-4-thia-2,12-diazatricyclo[7.3.0.0^3,7]dodeca-1,3(7),5-trien-8-one]	85	92	0.43	93	3.6	2.3	93	61	89	1.9	96	68	93	8.1	100	36	90	56	96	100	Inhibition (%) NM2C [3]: 93%; Inhibition (%) smooth [6]: 100%
Cc1ccc(N2CC[C@@]3(O)C(=O)c4ccsc4N=C23)cc1 [Compound 233, (9S)-9-Hydroxy-12-(4-methylphenyl)-4-thia-2,12-diazatricyclo[7.3.0.0^3,7]dodeca-1,3(7),5-trien-8-one]	92	98	0.32	98	8.8	2.1	72	48	69	0.82	88	74	87	17	100	21	76	29	70	83	Inhibition (%) NM2C [3]: 72%
